Test results reported in patent US10925876B2, “Methods for using triazolo-pyrazinyl soluble guanylate cyclase activators in fibrotic disorders” (Merck Sharp & Dohme Corp., priority 2016, dated 2021).

Tests used:
[1] = target: T1, sGC α1/β1 heterodimer (Homo sapiens, UniProt Q02108+Q02153); assay: Cell-Based sGC Functional Assay (CASA Assay), cGMP generation in CHO-K1/sGC cells;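 further: reference Compound A is a published heme-dependent sGC activator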; settings: maximum cGMP production of Compound A set to 100% activation, read-out: % Act. (percent activation relative to Compound A)
T1 construct: expressed in transfected cells
T1 sequence (Q02108 1-690): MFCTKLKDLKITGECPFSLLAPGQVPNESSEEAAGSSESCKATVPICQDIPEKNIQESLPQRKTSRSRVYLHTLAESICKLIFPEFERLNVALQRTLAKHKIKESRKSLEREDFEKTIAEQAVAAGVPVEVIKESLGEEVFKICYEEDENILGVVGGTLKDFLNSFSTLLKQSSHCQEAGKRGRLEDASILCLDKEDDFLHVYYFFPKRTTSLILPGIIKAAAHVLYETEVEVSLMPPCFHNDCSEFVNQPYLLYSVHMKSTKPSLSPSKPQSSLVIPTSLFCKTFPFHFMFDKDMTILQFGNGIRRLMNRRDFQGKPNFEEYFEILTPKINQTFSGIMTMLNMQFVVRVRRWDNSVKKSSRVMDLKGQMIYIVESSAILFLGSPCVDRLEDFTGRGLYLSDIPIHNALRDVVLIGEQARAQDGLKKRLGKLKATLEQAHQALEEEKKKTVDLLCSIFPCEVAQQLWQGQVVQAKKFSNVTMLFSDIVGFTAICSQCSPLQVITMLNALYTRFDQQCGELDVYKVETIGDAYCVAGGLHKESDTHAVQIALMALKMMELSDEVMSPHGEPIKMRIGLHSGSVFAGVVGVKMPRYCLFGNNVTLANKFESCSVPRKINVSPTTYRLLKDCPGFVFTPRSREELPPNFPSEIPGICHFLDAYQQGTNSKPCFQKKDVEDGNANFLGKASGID
T1 sequence (Q02153 1-619): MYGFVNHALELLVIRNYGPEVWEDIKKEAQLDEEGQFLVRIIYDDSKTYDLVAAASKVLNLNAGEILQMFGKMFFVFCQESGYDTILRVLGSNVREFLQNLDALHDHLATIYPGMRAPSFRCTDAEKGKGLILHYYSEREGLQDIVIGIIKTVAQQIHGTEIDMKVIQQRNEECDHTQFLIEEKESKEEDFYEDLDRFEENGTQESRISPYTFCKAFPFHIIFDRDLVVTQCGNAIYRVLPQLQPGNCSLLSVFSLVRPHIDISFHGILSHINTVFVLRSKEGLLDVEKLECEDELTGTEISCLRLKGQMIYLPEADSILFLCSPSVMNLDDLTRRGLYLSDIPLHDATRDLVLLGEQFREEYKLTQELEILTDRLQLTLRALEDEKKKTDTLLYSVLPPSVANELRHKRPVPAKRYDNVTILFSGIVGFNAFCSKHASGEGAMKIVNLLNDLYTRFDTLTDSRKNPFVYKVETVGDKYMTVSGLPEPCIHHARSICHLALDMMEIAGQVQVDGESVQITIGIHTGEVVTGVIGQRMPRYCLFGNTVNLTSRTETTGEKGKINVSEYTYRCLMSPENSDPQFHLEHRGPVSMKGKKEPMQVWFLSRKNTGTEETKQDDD
How it was run: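 Intracellular cGMP quantified by HTRF competition after 1 h, 37 °C compound exposure, with or without 1 μM DETA-NO, in stable CHO-K1/sGC α1/β1 cells (4×10^5/mL; buffer with 0.5 mM IBMX, 5 mM MgCl2, 10 mM HEPES, 0.05% BSA; 2.5% DMSO). Activation normalized to reference Compound A maximum; 4P fit.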

[2] = test system: Spontaneously hypertensive rats (SHR); assay: Acute Efficacy in Spontaneously Hypertensive Rats (SHR), telemetry blood pressure; type: in vivo, rat; settings: single oral gavage
From the text: Spontaneously hypertensive rats (SHR, male, Charles River) were implanted with DSI TA11PA-C40 telemetry device (Data Sciences, Inc., St. Paul, Minn.) under isoflurane or ketamine/metomidine anesthesia. The telemetry unit catheter was inserted into the descending aorta via the femoral artery and the telemetry device was implanted subcutaneously in the left flank area. Animals were allowed to recover from surgery for 14 days before the start of any studies. Blood pressure, heart rate, and activity signals from conscious, freely moving rats were recorded continuously for 30 seconds every 10 minutes. On the day prior to administration of compound, a single oral dose of vehicle (10% transcutol/20% Cremophor/70% water) was administered to all animals to establish baseline control data. The blood pressure lowering efficacy of compound (PO) or vehicle was evaluated following a single oral gavage. Data were collected as hourly averages, and changes in blood pressure were calculated by subtracting control baseline data on an hourly basis. Animals were maintained on normal diet with a 12 hour light-dark cycle.
Maximum peak decreases of systolic blood pressure (SBP) in SHR at a particular P.O. dose (mpk milligrams per kilogram) for the following representative compounds are provided. Category A=SBP in SHRs <20 mmHg; Category B=SBP in SHRs 20-40 mmHg; Category C=SBP in SHRs >40 mmHg.

| Structure (SMILES) | Emax [1] | Maximum peak decrease of systolic blood pressure (SBP) in SHR, Cat. ([2]; P.O. 0.3 mpk) | Maximum peak decrease of systolic blood pressure (SBP) in SHR, Cat. ([2]; P.O. 1 mpk) | Maximum peak decrease of systolic blood pressure (SBP) in SHR, Cat. ([2]; P.O. 3 mpk) | Maximum peak decrease of systolic blood pressure (SBP) in SHR, Cat. ([2]; P.O. 0.1 mpk) |
| --- | --- | --- | --- | --- | --- |
| Cc1ccc(C2(C3CC3)C(=O)Nc3nc(-c4cn5ncnc5c(CCC(F)(F)C(F)(F)F)n4)nc(N)c32)nc1 (racemic) [Example 17B, 4-amino-5-cyclopropyl-5-(5-methylpyridin-2-yl)-2-(8-(3,3,4,4,4-pentafluorobutyl)-[1,2,4]triazolo[1,5-a]pyrazin-6-yl)-5H-pyrrolo[2,3-d]pyrimidin-6(7H)-one] | 119% | A (Category A=SBP in SHRs <20 mmHg) | – | – | – |
| Nc1nc(-c2cn3ncnc3c(CCCC(F)(F)F)n2)nc2c1C(c1ccc(C(F)F)cn1)(C1CC1)C(=O)N2 (racemic) [Example 44B, 4-amino-5-cyclopropyl-5-(5-(difluoromethyl)pyridin-2-yl)-2-(8-(4,4,4-trifluorobutyl)-[1,2,4]triazolo[1,5-a]pyrazin-6-yl)-5H-pyrrolo[2,3-d]pyrimidin-6(7H)-one] | 120% | – | B (Category B=SBP in SHRs 20-40 mmHg) | – | – |
| Nc1nc(-c2cn3ncnc3c(CCCC(F)(F)F)n2)nc2c1C(c1ccc(C(F)(F)F)cn1)(C1CC1)C(=O)N2 (single isomer, unassigned) [Example 2A, 4-Amino-5-cyclopropyl-2-(8-(4,4,4-trifluorobutyl)-[1,2,4]triazolo[1,5-a]pyrazin-6-yl)-5-(5-(trifluoromethyl)pyridin-2-yl)-5H-pyrrolo[2,3-d]pyrimidin-6(7H)-one] | 111% | A (Category A=SBP in SHRs <20 mmHg) | – | – | – |
| CC1(c2ccc(Cl)cn2)C(=O)Nc2nc(-c3cn4ncnc4c(CCC(F)(F)C(F)(F)F)n3)nc(N)c21 (stereo not drawn) [Example 3A, 4-amino-5-(5-chloropyridin-2-yl)-5-methyl-2-(8-(3,3,4,4,4-pentafluorobutyl)-[1,2,4]triazolo[1,5-a]pyrazin-6-yl)-5H-pyrrolo[2,3-d]pyrimidin-6(7H)-one] | 161% | B (Category B=SBP in SHRs 20-40 mmHg) | – | – | – |
| CC1(c2cncc(F)c2)C(=O)Nc2nc(-c3cn4ncnc4c(CCC(F)(F)C(F)(F)F)n3)nc(N)c21 (stereo not drawn) [Example 9A, 4-amino-5-(5-fluoropyridin-3-yl)-5-methyl-2-(8-(3,3,4,4,4-pentafluorobutyl)-[1,2,4]triazolo[1,5-a]pyrazin-6-yl)-5H-pyrrolo[2,3-d]pyrimidin-6(7H)-one] | 119% | – | B (Category B=SBP in SHRs 20-40 mmHg) | – | – |
| CC1(c2ccc(C#N)cn2)C(=O)Nc2nc(-c3cn4ncnc4c(CCC(F)(F)C(F)(F)F)n3)nc(N)c21 (stereo not drawn) [Example 18A] | 75% | C (Category C=SBP in SHRs >40 mmHg) | – | – | – |

Now from value to molecule, other results behind:

| Emax [1] | Structure (SMILES) | Maximum peak decrease of systolic blood pressure (SBP) in SHR, Cat. ([2]; P.O. 0.3 mpk) | Maximum peak decrease of systolic blood pressure (SBP) in SHR, Cat. ([2]; P.O. 1 mpk) | Maximum peak decrease of systolic blood pressure (SBP) in SHR, Cat. ([2]; P.O. 3 mpk) | Maximum peak decrease of systolic blood pressure (SBP) in SHR, Cat. ([2]; P.O. 0.1 mpk) |
| --- | --- | --- | --- | --- | --- |
| 196% | C[C@@]1(c2ccc(F)cc2)C(=O)Nc2nc(-c3cn4ncnc4c(CCC(F)(F)C(F)(F)F)n3)nc(N)c21 [Example 1A, (S)-4-Amino-5-(4-fluorophenyl)-5-methyl-2-(8-(3,3,4,4,4-pentafluorobutyl)-[1,2,4]triazolo[1,5-a]pyrazin-6-yl)-5H-pyrrolo[2,3-d]pyrimidin-6(7H)-one] | C (Category C=SBP in SHRs >40 mmHg) | – | – | – |
| 157% | CC1(c2ccc(F)cn2)C(=O)Nc2nc(-c3cn4ncnc4c(CCC(F)(F)C(F)(F)F)n3)nc(N)c21 (stereo not drawn) [Example 4B, 4-amino-5-(5-fluoropyridin-2-yl)-5-methyl-2-(8-(3,3,4,4,4-pentafluorobutyl)-[1,2,4]triazolo[1,5-a]pyrazin-6-yl)-5H-pyrrolo[2,3-d]pyrimidin-6(7H)-one] | C (Category C=SBP in SHRs >40 mmHg) | – | – | – |
| 185% | Nc1nc(-c2cn3ncnc3c(CCC(F)(F)C(F)(F)F)n2)nc2c1C(c1ccc(Cl)cn1)(C1CC1)C(=O)N2 (stereo not drawn) [Example 7A, 4-amino-5-(5-chloropyridin-2-yl)-5-cyclopropyl-2-(8-(3,3,4,4,4-pentafluorobutyl)-[1,2,4]triazolo[1,5-a]pyrazin-6-yl)-5H-pyrrolo[2,3-d]pyrimidin-6(7H)-one] | B (Category B=SBP in SHRs 20-40 mmHg) | – | – | – |
| 177% | Nc1nc(-c2cn3ncnc3c(CCC(F)(F)C(F)(F)F)n2)nc2c1C(c1cncc(F)c1)(C1CC1)C(=O)N2 (stereo not drawn) [Example 8B, 4-amino-5-cyclopropyl-5-(5-fluoropyridin-3-yl)-2-(8-(3,3,4,4,4-pentafluorobutyl)-[1,2,4]triazolo[1,5-a]pyrazin-6-yl)-5H-pyrrolo[2,3-d]pyrimidin-6(7H)-one] | – | – | B (Category B=SBP in SHRs 20-40 mmHg) | – |
| 208% | CC1(c2ccccn2)C(=O)Nc2nc(-c3cn4ncnc4c(CCC(F)(F)C(F)(F)F)n3)nc(N)c21 (stereo not drawn) [Example 11B, 4-amino-5-methyl-2-(8-(3,3,4,4,4-pentafluorobutyl)-[1,2,4]triazolo[1,5-a]pyrazin-6-yl)-5-(pyridin-2-yl)-5H-pyrrolo[2,3-d]pyrimidin-6(7H)-one] | B (Category B=SBP in SHRs 20-40 mmHg) | – | – | – |
| 122% | CC1(c2ccccc2)C(=O)Nc2nc(-c3cn4ncnc4c(CCC(F)(F)C(F)(F)F)n3)nc(N)c21 (stereo not drawn) [Example 12B, 4-amino-5-methyl-2-(8-(3,3,4,4,4-pentafluorobutyl)-[1,2,4]triazolo[1,5-a]pyrazin-6-yl)-5-phenyl-5H-pyrrolo[2,3-d]pyrimidin-6(7H)-one] | – | – | – | B (Category B=SBP in SHRs 20-40 mmHg) |
| 109% | CC1(c2ccc(C3CC3)nc2)C(=O)Nc2nc(-c3cn4ncnc4c(CCC(F)(F)C(F)(F)F)n3)nc(N)c21 (stereo not drawn) [Example 13B, 4-amino-5-(6-cyclopropylpyridin-3-yl)-5-methyl-2-(8-(3,3,4,4,4-pentafluorobutyl)-[1,2,4]triazolo[1,5-a]pyrazin-6-yl)-5H-pyrrolo[2,3-d]pyrimidin-6(7H)-one] | – | B (Category B=SBP in SHRs 20-40 mmHg) | – | – |
| 131% | CC(C)n1cc(C2(C)C(=O)Nc3nc(-c4cn5ncnc5c(CCC(F)(F)C(F)(F)F)n4)nc(N)c32)nn1 (stereo not drawn) [Example 20A, 4-amino-5-(1-isopropyl-1H-1,2,3-triazol-4-yl)-5-methyl-2-(8-(3,3,4,4,4-pentafluorobutyl)-[1,2,4]triazolo[1,5-a]pyrazin-6-yl)-5H-pyrrolo[2,3-d]pyrimidin-6(7H)-one] | – | C (Category C=SBP in SHRs >40 mmHg) | – | – |
| 131% | CC1(c2ccc(C(F)(F)F)cn2)C(=O)Nc2nc(-c3cn4ncnc4c(CCCC(F)(F)F)n3)nc(N)c21 (stereo not drawn) [Example 25B, 4-amino-5-methyl-2-(8-(4,4,4-trifluorobutyl)-[1,2,4]triazolo[1,5-a]pyrazin-6-yl)-5-(5-(trifluoromethyl)pyridin-2-yl)-5H-pyrrolo[2,3-d]pyrimidin-6(7H)-one] | B (Category B=SBP in SHRs 20-40 mmHg) | – | – | – |
